# Experimental data as given in paper PMC10447463, “Data-mining unveils structure–property–activity correlation of viral infectivity enhancing self-assembling peptides” (Nature Communications, 2023).
# Where “and” joins values, the source holds several entries; their conditions need not be identical. Equal entries are not always repeated. Where two headings read alike, the source gives them in different places.
# Assays:
# [1] = format: physicochemical; set-up: key to Fibril / Fibril Formation / TEM 2cat / Fibril: 1 = fibrils present; 0 non-fibrillar structures
# [2] = test system: HIV-1 infection of TZM-bl cells; assay: HIV-1 infectivity enhancement assay, β-galactosidase luminescence; format: cell-based; conditions: for Rel-to EFC / n-fold to virus: Fig S8 panels B, D; for Log10 Inf. rel. to EF-C: log10 of HIV-1 infection of TZM-bl cells relative to EF-C, Fig S15 source data; for Log10 Inf. rel. to EF-C / Log Infectivity: asymmetric std dev errors; for Log Infectivity: Log10 infection relative to EF-C, TZM-bl cells; for Log10 Infection Rel EF-C: HIV-1 infection of TZM-bl cells
# [3] = β-sheet content by ATR-FT-IR; format: physicochemical
# Summary of the method: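 Using ATR FT-IR (diamond, 2 cm^-1, 64 scans), lyophilized 1 mg/mL PNF samples gave β-sheet content by a published calculation. Fluorescamine signals of 3 kDa filtrates relative to unfiltered samples, normalised to DMSO as 1, yielded CR in percent.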
# [4] = format: physicochemical; conditions: for Tht category (> 1.5 to blank = +): category 1/0
# Summary of the method: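 Preformed peptide fibrils (1 mg/mL) mixed with 50 µM ThT in PBS, 15 min at RT, fluorescence ex 440/em 488 nm versus PBS blank, triplicates. Zeta potential: peptides at 1 mg/mL in PBS pH 7.4, aged 1 d at RT, diluted in 1 mM KCl, Smoluchowski from electrophoretic mobility.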
# [5] = Feb2021, Log10 of infectivity relative to EF-C
# [6] = Feb2021, figures match the 1.3 µM column
# [7] = Feb2021, infectivity enhancement relative to EF-C
# [8] = Feb2021, infectivity relative to virus only
# [9] = Feb2021, n-fold infectivity relative to EF-C
# [10] = Feb2021 run, infectivity n-fold relative to virus alone
# [11] = Feb2021 run, log10 of infectivity relative to EF-C
# [12] = Feb2021 run, n-fold infectivity relative to EF-C
# [13] = infectivity enhancement relative to EF-C
# [14] = infectivity n-fold relative to virus alone
# [15] = infectivity class (low / medium / high) of each library peptide, main list in c1-c6, same classes repeated in sub-lists of sequences containing the hydrophobicity/charge patterns P+,H0,P+,H0,P0,H0,P0, P+,H0,P0,H0,P0,H0,P0, P+,H0,P0,H0
# [16] = ThT fluorescence relative to blank (42.1851851851852 a.u.)
# [17] = ThT fluorescence relative to blank, blank = 42.1851851851852
# [18] = relative to blank 42.1851851851852 a.u.
# [19] = Feb2021, n-fold enhancement relative to EF-C
# [20] = Feb2021, 1.3 µM value relative to virus only (0 µM)
# [21] = Feb2021, unrounded values of the 1.3 µM column
# [22] = infectivity class (low / medium / high) of the peptide in the sequence-pattern analysis, Fig. S22-A4, class limits not given
# [23] = infectivity enhancement relative to EF-C (=1), Feb2021 run
# [24] = infectivity n-fold relative to virus only, Feb2021 run
# [25] = log10 of infectivity relative to EF-C, Feb2021 run
Substance,"TEM: 1= fibrils, 0= aggregates (micelle), 0.5 = aggregates and fibrils, -1 = nothing obersved, STD prep [1]","Log10 of Rel to EFC (Feb2021) [2, 5]","Absolute Infectivity / RLU /s (Feb2021) [2, 6] [RLU /s]","n-fold to virus (Feb2021) [2, 8]","Rel-to EFC (Feb-2021) [2, 9]","n-fold to virus (Feb2021) [2, 10]","Log10 of Rel to EFC (Feb2021) [2, 11]","Rel-to EFC (Feb-2021) [2, 12]","Rel-to EFC [2, 13]","n-fold to virus [2, 14]","infectivity [2, 15]",Log10 Inf. rel. to EF-C [2],FTIR ß-sheet content/ % ([3]; ATR-FT-IR),"Tht rel to blank (42.1851851851852) [4, 16]","Tht rel to blank (42.1851851851852) [4, 17]",Tht category (> 1.5 to blank = +) [4],"Tht rel to blank (42.1851851851852) [4, 18]","Rel-to EFC (Feb-2021) [2, 19]",FTIR ß-sheet content/ % [3] [%],"infectivity [2, 22]",other results
CKFKQFFNM [CK14],1,-0.3892,15720,17.15,0.4081,17.15,-0.3892,0.4081,0.4081,17.15,medium,-0.3892,0%,45.97,45.97,"1 (ThT. Cat is 1, if Rel. ThT >2)",45.97,,,,"Rel-to EFC (Feb-2021) [2, 7]: 0.4081"
CKFKQFFNMWQ [CK13],1,-0.2148,23486.66667,25.62,0.6098,25.62,-0.2148,0.6098,,,medium,-0.2148,59% and 59.11%,27.7,27.7,"1 (ThT. Cat is 1, if Rel. ThT >2)",27.7,0.6098,59.11,,
CKIKIQI [MG3b],1,0.008101,,,1.019,42.81,0.008101,1.019,1.019,42.81,,0.0081,53%,3.939,,"1 (ThT. Cat is 1, if Rel. ThT >2)",3.939,1.019,53,high,"TEM: 1= fibrils, 0= aggregates (micelle), 0.5 = aggregates and fibrils, -1 = nothing obersved, STD prep ([1]; FigS26): 1; n-fold to virus (Feb2021) [2, 20]: 42.81; Rel-to EFC (Feb-2021) [2, 7]: 1.019; Log10 of Rel to EFC (Feb2021) ([2]; Feb2021, log10 of infectivity relative to EF-C): 0.008101; Absolute Infectivity / RLU /s (Feb2021) [2, 21]: 19406.66667 RLU /s; Rel-to EFC (Feb-2021) [2, 23]: 1.019; n-fold to virus (Feb2021) [2, 24]: 42.81; Log10 of Rel to EFC (Feb2021) [2, 25]: 0.008101"
CKIKIQINM [MG2],1,0.2012,,,1.589,66.78,0.2012,1.589,,,high,0.2012,43% and 42.84%,2.648,,"1 (ThT. Cat is 1, if Rel. ThT >2)",2.648,1.589,42.84,high,"n-fold to virus (Feb2021) [2, 20]: 66.78; Absolute Infectivity / RLU /s (Feb2021) [2, 21]: 30273.33333 RLU /s"
CKIKIQINMWQ,,,,,,,,,,,,,,,,,,,,,"TEM 2cat ([1]; Fig S10 panel D, fibril category by TEM): 1; Fibril ([1]; Fig S10 panel E): 1; Fibril / Fibril Formation ([1]; TEM, 1 mg/mL, uranyl acetate stain, qualitative): 1; Fibril ([1]; TEM, 1 = fibrils present, 0 = non-fibrillar): 1; Fibril ([1]; TEM, 1 = fibrils present, 0 = non-fibrillar structures): 1; TEM 2cat ([1]; category: fibrils present or non-fibrillar): 1; Rel-EFC ([2]; 1.3 µM peptide, infection relative to EF-C (QCKIKQIINMWQ = 1)): 0,7; Log10 Infection Rel EFC ([2]; 1.3 µM peptide, log10 of infection relative to EF-C): -0,16; Log Infectivity ([2]; Fig. S7 panel A (plotted against β-sheet content)): -0.155; Log Infectivity ([2]; Fig. S7 panel B (plotted against CR), rounded to two decimals): -0.16; Log10 Infection Rel EF-C ([2]; Log10 of infection rate relative to EF-C, Figure 3A source data): -0.16; Log10 Infection Rel EF-C ([2]; infection rate relative to EF-C, log10, data of Figure 2D): -0.155; Log10 Infection Rel EF-C ([2]; infection rate relative to EF-C, log10, source data of Figure 2C): -0.155; Log10 of Rel to EFC (Feb2021) ([2]; Log10 of infection relative to EF-C, all peptides of FigS16): -0.16; b -sheet / % ([3]; Fig. S7 panel A, β-sheet content by ATR-FT-IR): 44.89%; Tht category (> 2 to blank = +) ([4]; Fig S10 panel D): 1 (ThT. Cat is 1, if Rel. ThT >2); ThT Cat. ([4]; Fig S10 panel E): 1 (ThT. Cat is 1, if Rel. ThT >2); ThT Cat, ([4]; ThT category, 1 if Rel. ThT >2): 1 (ThT. Cat is 1, if Rel. ThT >2); ThT Cat. ([4]; ThT fluorescence category, 1 if Rel. ThT >2): 1 (ThT. Cat is 1, if Rel. ThT >2); ThT Cat. / ThT-Fluorescence (categorical) ([4]; ThT-active if fluorescence at least twice the control): 1 (ThT. Cat is 1, if Rel. ThT >2)"
CKIKIQINMWQ [MG1],1,-0.155,,,0.6998,29.41,-0.155,0.6998,,,medium,-0.155,45% and 44.89%,4.566,,"1 (ThT. Cat is 1, if Rel. ThT >2)",4.566,0.6998,44.89,,"n-fold to virus (Feb2021) [2, 20]: 29.41; Absolute Infectivity / RLU /s (Feb2021) [2, 21]: 18623.33333 RLU /s"
CKIKQII [MG4a],0.5,-1.379,796.7,1.757,0.04182,1.757,-1.379,0.04182,0.04182,1.757,,-1.379,25%,3.914,3.914,"1 (ThT. Cat is 1, if Rel. ThT >2)",3.914,0.04182,25,low,"Rel-to EFC (Feb-2021) [2, 23]: 0.04182; n-fold to virus (Feb2021) [2, 24]: 1.757; Log10 of Rel to EFC (Feb2021) [2, 25]: -1.379"
CKIKQIINM [BL1],1,-0.3035,11280,20.89,0.4971,20.89,-0.3035,0.4971,,,medium,-0.3035,46%,14.67,14.67,"1 (ThT. Cat is 1, if Rel. ThT >2)",14.67,0.4971,46,,
CKIKQIINMWQ [MG5a / CK17],1,0.09484,23696.66667,52.27,1.244,52.27,0.09484,1.244,1.244,52.27,,0.09484,51%,48.46,48.46,"1 (ThT. Cat is 1, if Rel. ThT >2)",48.46,1.244,51,high,"Rel-to EFC (Feb-2021) [2, 23]: 1.244; n-fold to virus (Feb2021) [2, 24]: 52.27; Log10 of Rel to EFC (Feb2021) [2, 25]: 0.09484"
